Tests used:
[1] = VIS spectra of dye after coupling to a protein (aggregation in the protein conjugate); conditions: FIG. 1
[2] = protein conjugate vs free dye; cited from earlier work

| Structure (SMILES) | VIS spectrum curve shape (monomer / dimer band) [1] | decrease of fluorescence quantum yield of the protein conjugate compared with free, unconjugated dye [2] |
| --- | --- | --- |
| CC(C=CC1=[N+](CCCCCC(=O)O)c2ccc(S(=O)(=O)[O-])cc2C1(C)C)=CC=C1N(CCCCCC(=O)O)c2ccc(S(=O)(=O)[O-])cc2C1(C)C.[Na+] [Example 1, 1-(5-carboxypentyl)-2-[5-(l-(5-carboxypentyl)-1,3-dihydro-3,3-dimethyl-5-sulpho-2H-indole-2-ylidene)-3-methylpenta-1,3-dienyl]-3,3-dimethyl-5-sulpho-3H-indolium-inner Salt, Sodium Salt] | typical curve shape for a monomer | – |
| CC(C=CC1=[N+](CCCCCC(=O)O)c2ccc(S(=O)(=O)[O-])cc2C1(C)C)=C1N(CCCCCC(=O)O)c2ccc(S(=O)(=O)[O-])cc2C1(C)C.[Na+] [Example 3, 1-(5-carboxypentyl)-2-[3-(1,3-dihydro-1-(5-carboxypentyl)-3,3-dimethyl-5-sulpho-2H-indole-2-ylidene)-3-methylprop-1-enyl]-3,3-dimethyl-5-sulpho-3H-indolium Hydroxide, Inner Salt, Sodium Salt] | – | around ¼ |
